Assay results: article PMC9393629, “Acetogenic production of 3-Hydroxybutyrate using a native 3-Hydroxybutyryl-CoA Dehydrogenase” (Frontiers in Microbiology, 2022)

Assays:
[1] = molecular target: T1, C. ljungdahlii Hbd2 (Clostridium ljungdahlii, UniProt D8GTU3); experiment: NAD(P)H oxidation at […] nm, E. coli cell-free extract; type: biochemical; details: 75 uM NADH, 125 uM acetoacetyl-CoA; 100 mM potassium phosphate pH 6.5, 25 mM potassium citrate; vector-extract activity subtracted
T1 construct: gene mmgB_1; full-length gene expressed in E. coli, cell-free extract (bead-beating), not purified; EC 1.1.1.57 printed
T1 sequence (D8GTU3 1-313): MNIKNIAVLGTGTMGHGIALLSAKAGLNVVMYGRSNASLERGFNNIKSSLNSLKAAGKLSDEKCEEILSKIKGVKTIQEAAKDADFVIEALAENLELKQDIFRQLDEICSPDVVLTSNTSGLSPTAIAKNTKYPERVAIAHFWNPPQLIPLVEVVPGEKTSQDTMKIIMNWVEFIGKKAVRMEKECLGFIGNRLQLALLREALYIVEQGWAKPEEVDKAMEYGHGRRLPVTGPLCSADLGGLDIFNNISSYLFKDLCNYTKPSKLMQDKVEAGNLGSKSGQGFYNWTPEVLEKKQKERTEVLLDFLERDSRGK

[2] = molecular target: T2, C. kluyveri Hbd1 (Clostridium kluyveri, UniProt A5N5D1); experiment: as above; type: biochemical; details: 75 uM NADPH, 125 uM acetoacetyl-CoA; 100 mM potassium phosphate pH 6.5, 25 mM potassium citrate
T2 construct: full-length gene expressed in E. coli, cell-free extract (bead-beating), not purified
T2 sequence (A5N5D1 1-282): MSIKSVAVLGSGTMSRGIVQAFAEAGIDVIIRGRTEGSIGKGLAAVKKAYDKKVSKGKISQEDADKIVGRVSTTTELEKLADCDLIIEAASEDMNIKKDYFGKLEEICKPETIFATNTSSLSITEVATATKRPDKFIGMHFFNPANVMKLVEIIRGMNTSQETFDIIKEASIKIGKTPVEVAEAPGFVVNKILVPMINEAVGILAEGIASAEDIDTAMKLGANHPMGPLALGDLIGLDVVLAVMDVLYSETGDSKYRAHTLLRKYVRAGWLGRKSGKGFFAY

NC(=O)C1=CN([C@@H]2O[C@H](COP(=O)(O)OP(=O)(O)OC[C@H]3O[C@@H](n4cnc5c(N)ncnc54)[C@H](O)[C@@H]3O)[C@@H](O)[C@H]2O)C=CC1 [NADH]
NAD(P)H oxidation at 340 nm, E. coli cell-free extract [1]: we confirmed NADH specificity and acetoacetyl-CoA-dependence

NC(=O)C1=CN([C@@H]2O[C@H](COP(=O)(O)OP(=O)(O)OC[C@H]3O[C@@H](n4cnc5c(N)ncnc54)[C@H](OP(=O)(O)O)[C@@H]3O)[C@@H](O)[C@H]2O)C=CC1 [NADPH]
NAD(P)H oxidation at 340 nm, E. coli cell-free extract [2]: C. kluyveri hbd1 E. coli extracts were used as an NADPH-specific control

CC(=O)CC(=O)SCCNC(=O)CCNC(=O)[C@H](O)C(C)(C)COP(=O)(O)OP(=O)(O)OC[C@H]1O[C@@H](n2cnc3c(N)ncnc32)[C@H](O)[C@@H]1OP(=O)(O)O [acetoacetyl-CoA]
NAD(P)H oxidation at 340 nm, E. coli cell-free extract [2]: Both hbd1 and hbd2 E. coli cell free extracts showed low activity without acetoacetyl-CoA
NAD(P)H oxidation at 340 nm, E. coli cell-free extract [1]: we confirmed NADH specificity and acetoacetyl-CoA-dependence
